In assay [1] the test system is patients with non-ST-segment elevation myocardial infarction. The note with it: patients with NSTEMI; cited from earlier work.
Assay [2] deals with xenograft models (non-small cell lung, multiple myeloma, breast, glioblastoma, and ovary). The note with it: cited from earlier work.
A further assay has as its system isolated rat heart. Nature of the assay: Isolated rat heart, prolonged 4 hour hypoxic perfusion ex vivo. The text has this:
(§1) The isolated rat heart model was used to simulate non-ischemic conditions of tissue hypoxia ex vivo. In this study, rat hearts were only perfused with oxygenated Krebs buffer containing electrolytes and glucose under normothermia. Despite normal perfusion, the organ gradually develops significant dysfunction over hours due to the absence of erythrocytes and hemoglobin that create hypoxic conditions. […] It should be noted that such an increase in LVEDP may lead to pulmonary edema in vivo. Furthermore, the force of contraction was reduced as evident by a 25% decrease in left ventricular developed pressure (LVDP) in Control hearts (FIG. 2).

Assay [3] deals with p38 MAPK. Nature of the assay: p38 MAPK activation in isolated rat heart after 4 hours hypoxic perfusion. The note with it: after 4 hours of prolonged hypoxic perfusion, p<0.05.
Source text: as §1

The test system of the next assay is male C57BL/6N mice. Nature of the assay: Cecal ligation and puncture (CLP) sepsis model. It is filed as in vivo. On the procedure:
The effect of T3 administration in high dosages in the treatment of tissue hypoxia due to microvascular dysfunction occurring in the myocardium, kidneys and liver is evaluated in a sepsis experimental model using male C57BL/6N mice of 10-12 weeks age. The animal studies were carried out in compliance with all necessary regulations in force.
The simulation of the clinical conditions during sepsis leading to tissue hypoxia and microvascular dysfunction is achieved following the most widely used clinical model of cecal ligation and puncture (CLP). In this experimental model, ligation distal to the ileocecal valve (25% of total cecum length) and perforation by a single 21 G puncture is performed under sevoflurane anesthesia causing leakage of fecal contents into the peritoneum, with subsequent polymicrobial bacteremia and sepsis. The perforation of the cecum allows the release of fecal material into the peritoneal cavity to generate an exacerbated immune response induced by polymicrobial infection. In this model, sepsis causes systemic activation of the inflammatory response, microvascular dysfunction, tissue hypoxia, multi-organ failure, and hemodynamic disorder that results in death as in clinical practice.
The animals are supported by subcutaneous fluid administration every 8 hours and administration of buprenorphine 0.1 mg/kg and paracetamol 300 mg/kg, as is the case with septic patients in the intensive care unit (ICU). All animals are closely monitored for their clinical status based on a modified score scale known as the Lipopolysaccharide (LPS) Score Sheet.
The animals divide into 2 groups: the first group receives placebo (placebo group) and the second group receives intraperitoneally a dose of 0.3 μg T3/g of body weight, immediately after surgery (group T3). Based on guidelines for converting doses from experimental animals to equivalent doses in humans (Nair, A B and Jacob S. A simple practice guide for dose conversion between animals and humans. I Basic C/in Pharma 2016, 7: 27-31), the dose of 0.3 μg T3/g of body weight, corresponds roughly to intravenous administration of 7 μg T3/Kg body weight, i.e., from 400 to 600 μg T3 for a patient weighing 60-80 Kg. This dose is very high and beyond any T3 treatment in hypothyroid patients. The study is performed in two separate experiments. In the first experimental protocol, the clinical condition of the animals and mortality after 72 hours is examined, while in the second experimental protocol, tissue hypoxia at the cellular level after euthanasia at 18 hours is studied.
Initially, lactate levels in blood samples are measured (using L-lactate assay kit from Sigma-Aldrich, MAK329) as a general indicator of hypoxia, which is also commonly used in clinical practice in patients with sepsis. Furthermore, creatinine levels in blood are measured as an indicator of renal function (using the Mouse Creatinine Kit Cat. 80350, Crystal Chem). Finally, an echocardiographic analysis is performed in order to evaluate the end-diastolic and end-systolic volume, the ejection fraction and the pulse volume according to the Simpson rule.
Echocardiographic analysis was performed after mild anesthesia with sevoflurane (0.8%) and placing the animal in a heated blanket. Echocardiographic images were then taken along the longitudinal and transverse sternal axis with the Vivid 7 version Pro ultrasound system (GE Healthcare, Wauwatosa, Wisconsin), equipped with a 14.0-MHz probe (i13L).
Tissue hypoxia at the cellular level is determined in frozen fixed tissues in 4% paraformaldehyde based on the standard method of pimonidazole administration using the Hypoxyprobe™ Plus kit. Pimonidazole is dissolved and administered intravenously in mice at a dose of 60 mg/kg, 2 hours before euthanasia. After intracardiac infusion with paraformaldehyde, the organs are fixed, removed and dehydrated for 5 days in 30% sucrose solution. […]

The subject of assay [4] is p38 MAPK. The note with it: T3 40 μg/L, P<0.05, cited from earlier work.
For a further assay, the system named is sepsis. As to conditions: rat sepsis models; cited from earlier work.
The mark [5] stands for this setting: 40 μg/L after first 30 min of hypoxic perfusion, 4 hours.
Setting [6] is: 18 hours after sepsis induction.

Structures are written as SMILES. Where two headings read alike, the source gives them in different places.

On to `Cc1c(F)cc(C(=O)NC2CC2)cc1-c1ccc(C(=O)NCC(C)(C)C)cn1` [Losmapimod], for which the myocardial protective effects entry in assay [1] is “presented myocardial protective effects”.
`CC(C)(C)Cn1c(N)nc2ccc(-c3[nH]c(C(C)(C)C)nc3-c3ccc(F)cc3)nc21` [Ralimetinib]: in assay [2], the “antineoplastic activity as a single agent” value is recorded as “demonstrated antineoplastic activity”.
As to `N[C@@H](Cc1cc(I)c(Oc2ccc(O)c(I)c2)c(I)c1)C(=O)O` [T3, L-triiodothyronine], in the assay on isolated rat heart (setting [5]), the diastolic dysfunction result is given as “attenuated diastolic dysfunction” and the “left ventricular end-diastolic pressure (LVEDP)” value was “maintained LVEDP at normal values”. Also, in the assay on isolated rat heart (40 μg/L, after 4 hours), the “force of contraction (left ventricular developed pressure, LVDP)” value is “improved force of contraction”. The “perfusion pressure of coronary vessels (microvascular dysfunction)” value with isolated rat heart (after 4 hours hypoxic perfusion) is “lower perfusion pressure”. Besides, the “prevention of p38 MAPK activation” value with p38 MAPK [3] came out at 3 fold. For the same compound, in the assay with male C57BL/6N mice (18 hours after sepsis), the creatinine levels result is “did not increase”; the “hepatic tissue hypoxia (pimonidazole)” value is “statistically significant reduction”; the “renal tissue hypoxia (pimonidazole) in OSOM and ISOM” value is “significantly reduce”. In addition, in the assay on male C57BL/6N mice (setting [6]), the “ejection fraction (echocardiography)” value is reported as “within normal range” and the “pulse volume (echocardiography)” value was “within normal range”. Besides, the “lactic acid levels in blood” value in the assay on male C57BL/6N mice (18 hours after sepsis, 0.3 μg T3/g i.p.) is listed as “decrease”. Moreover, in the assay on male C57BL/6N mice (18 hours, p=0.028 vs placebo), the “myocardial tissue hypoxia, pimonidazole-positive tissue of the left ventricular total tissue” value is 1.5%±0.5. The “lactic acid levels in blood” value in the assay with male C57BL/6N mice (24 hours after sepsis, 0.3 μg T3/g i.p.) was “decrease”. Besides, the animals surviving entry in the assay with male C57BL/6N mice (72 hours after CLP, 0.3 μg T3/g i.p.) is given as “up to 20%”. For the same compound, the heart rate result in the assay on male C57BL/6N mice (after sepsis induction) is “within normal range”. Also, in the assay on p38 MAPK [4] (after 5 minutes of reperfusion), the “phospho-p38 MAPK levels, less than control” value was 2.3 fold. In addition, in the assay with p38 MAPK [4] (after 15 minutes of reperfusion), the “phospho-p38 MAPK levels, less than control” value is listed as 2.1 fold. In addition, in the assay with sepsis, the cytokine storm entry was “reduce cytokine storm”; the “lung function and surfactant synthesis” value was “maintain lung function and surfactant synthesis”; the survival entry is on record as “improve survival”.

Values taken from patent US12673036B2, “Method of using L-triiodothyronine (T3) for the treatment of tissue hypoxia and sepsis” (UNI-PHARMA KLEON TSETIS PHARMACEUTICAL LABORATORIES S.A., priority 2020, dated 2026).
